In publication PMC9530963, “A cathelicidin antimicrobial peptide from Hydrophis cyanocinctus inhibits Zika virus infection by downregulating expression of a viral entry factor” (The Journal of Biological Chemistry, 2022):

What was measured:
[1] = parameters: method as in PMID 26013823; conditions: cited from earlier work
[2] = tested on: ZIKV; experiment: Direct inactivation of ZIKV particles (virus pre-incubated with peptide); assay type: cell-based, ZIKV strain PRVABC59; conditions: ZIKV incubated with 2.5 μM peptide at 37 °C for 2 h, pelleted, added to Vero cells, 48 h; RNA, NS3, E protein, titer
Description: Figure 8 Hc-CATH directly inactivates ZIKV particles by disrupting viral membrane.A, schematic diagram of B–G (Hc-CATH-Vero-pre). B–G, direct inactivation of ZIKV by Hc-CATH. ZIKVs (MOI = 1) were incubated with Hc-CATH (2.5 μM), AC5 (2.5 μM), LL-37 (2.5 μM), or PBS (peptide solvent) at 37 °C for 2 h, and then the ZIKV–PBS mixture and ZIKV–peptide mixture were centrifugated at 100,000g for 70 min. The pellets were washed with PBS and centrifugated at 100,000g for 70 min again. The pellets were resuspended in PBS, added to Vero cells, and incubated for 2 h. Cells were washed with PBS and cultured in fresh DMEM containing 2% FBS. After culture at 37 °C for 48 h, the intracellular ZIKV RNA (B), NS3 protein (C and D), E protein level (E, the scale bar represents 50 μm), and extracellular ZIKV titer (F and G) were tested by qPCR, Western blot, immunofluorescence staining, and plaque-forming assay, respectively. H, binding of Hc-CATH to ZIKV. High-affinity binding plates were coated with 0.25 μM of Hc-CATH, BSA, AC5, or LL-37. Then, 1 × 10^6 PFU of ZIKV was added and incubated. […] Absorbance at 450 nm was measured after reactions were stopped using 0.5 M sulfuric acid. […] After the residual RNase was inactivated, the undigested genomic RNA in the intact ZIKV particles was extracted and quantified by testing the genes of PrM, E, and Cap proteins, respectively. ∗∗p < 0.01 and ∗∗∗p < 0.001. […]

[3] = tested on: AXL; experiment: AXL level in U251 cells (Western blot, immunofluorescence); assay type: cell-based, Homo sapiens; conditions: 1.25, 2.5, and 5 μM, 24 h, with and without ZIKV challenge
Description: Figure 5 Hc-CATH downregulates AXL in U251 cell.A, schematic diagram of B and C. B, U251 cells were seeded in 24-well plates (5 × 10^4 cells/well) and cultured in DMEM containing 2% FBS. Hc-CATH (1.25, 2.5, and 5 μM) or same volume of PBS (peptide solvent) was added to cells and incubated at 37 °C for 24 h. The level of AXL was tested by Western blot. C, U251 cells were seeded in 8-well cover slip chambers (5 × 10^4 cells/well) and cultured in DMEM containing 2% FBS. Hc-CATH (1.25, 2.5, and 5 μM) or PBS was added to cells and incubated at 37 °C for 24 h. The level of AXL was tested by immunofluorescence staining. The scale bar represents 50 μm. D, schematic diagram of E–G. E–G, U251 cells were seeded in 24-well plates (5 × 10^4 cells/well) and cultured in DMEM containing 2% FBS. Hc-CATH (1.25, 2.5, and 5 μM) or PBS was added to cells and incubated at 37 °C for 2 h. Cells were washed with PBS and incubated with ZIKV (MOI = 1). After incubation at 37 °C for 2 h, cells were washed with PBS and cultured in DMEM containing 2% FBS.
The effect of Hc-CATH on AXL was further confirmed in A549 and U251 cells. A549 or U251 cells were incubated with Hc-CATH (1.25, 2.5, and 5 μM) or PBS at 37 °C for 24 h, and the level of AXL was detected by WB and IF, respectively. Upon ZIKV challenge, A549 or U251 cells were incubated with Hc-CATH (1.25, 2.5, and 5 μM) or PBS at 37 °C for 2 h. […]

KFFKRLLKSVRRAVKKFRKKPRLIGLSTLL [Hc-CATH, cathelicidin antimicrobial peptide identified from the sea snake Hydrophis cyanocinctus]
anti-inflammatory activity [1]: potent anti-inflammatory activity | direct inactivation of ZIKV particles [2]: directly inactivated viral particles | level of AXL in U251 cells [3]: effectively decreased the level of AXL
